Test results reported in patent publication US9422267B2, “Fused pyrimidine compounds and use thereof” (Medivation Technologies, Inc., priority 2012, dated 2016).
Where two headings read alike, the source gives them in different places.

How the values were obtained:
[1] = tested on: Akt phosphorylation induced by IGF-1R in HT-29 cells; experiment: Western blot analysis of Akt phosphorylation induced by IGF-1R; format: cell-based, Human; conditions: for phosphorylated AKT levels normalized to actin levels (pAKT/actin): then IGF-1 10 ng/mL 10 min, HT-29
Experimental: Inhibition of Akt phosphorylation induced by IGF-1R was studied by western blot analysis. Human colon carcinoma HT-29 cells were seeded at a density of 8×10^4 cells/well in a 24-well plate and grown in DME/F12 media containing 10% FBS for 24 h. The cells were then depleted of serum by incubation in DME/F12 media lacking FBS for 24 h. […] […] Lysed cells were centrifuged at 13,000 rpm for 15 min and the protein concentration soluble fraction (supernatant) of each sample was determined using a BCA protein assay (Pierce).

[2] = target: IGF1R (Homo sapiens, UniProt P08069); experiment: In vitro IGF-1R enzymatic assay (ADP-Glo kinase assay); format: biochemical; set-up: purchased Millipore 14-802; conditions: activated IGF-1R, 30 nM
IGF1R, sequence (P08069 31-1367): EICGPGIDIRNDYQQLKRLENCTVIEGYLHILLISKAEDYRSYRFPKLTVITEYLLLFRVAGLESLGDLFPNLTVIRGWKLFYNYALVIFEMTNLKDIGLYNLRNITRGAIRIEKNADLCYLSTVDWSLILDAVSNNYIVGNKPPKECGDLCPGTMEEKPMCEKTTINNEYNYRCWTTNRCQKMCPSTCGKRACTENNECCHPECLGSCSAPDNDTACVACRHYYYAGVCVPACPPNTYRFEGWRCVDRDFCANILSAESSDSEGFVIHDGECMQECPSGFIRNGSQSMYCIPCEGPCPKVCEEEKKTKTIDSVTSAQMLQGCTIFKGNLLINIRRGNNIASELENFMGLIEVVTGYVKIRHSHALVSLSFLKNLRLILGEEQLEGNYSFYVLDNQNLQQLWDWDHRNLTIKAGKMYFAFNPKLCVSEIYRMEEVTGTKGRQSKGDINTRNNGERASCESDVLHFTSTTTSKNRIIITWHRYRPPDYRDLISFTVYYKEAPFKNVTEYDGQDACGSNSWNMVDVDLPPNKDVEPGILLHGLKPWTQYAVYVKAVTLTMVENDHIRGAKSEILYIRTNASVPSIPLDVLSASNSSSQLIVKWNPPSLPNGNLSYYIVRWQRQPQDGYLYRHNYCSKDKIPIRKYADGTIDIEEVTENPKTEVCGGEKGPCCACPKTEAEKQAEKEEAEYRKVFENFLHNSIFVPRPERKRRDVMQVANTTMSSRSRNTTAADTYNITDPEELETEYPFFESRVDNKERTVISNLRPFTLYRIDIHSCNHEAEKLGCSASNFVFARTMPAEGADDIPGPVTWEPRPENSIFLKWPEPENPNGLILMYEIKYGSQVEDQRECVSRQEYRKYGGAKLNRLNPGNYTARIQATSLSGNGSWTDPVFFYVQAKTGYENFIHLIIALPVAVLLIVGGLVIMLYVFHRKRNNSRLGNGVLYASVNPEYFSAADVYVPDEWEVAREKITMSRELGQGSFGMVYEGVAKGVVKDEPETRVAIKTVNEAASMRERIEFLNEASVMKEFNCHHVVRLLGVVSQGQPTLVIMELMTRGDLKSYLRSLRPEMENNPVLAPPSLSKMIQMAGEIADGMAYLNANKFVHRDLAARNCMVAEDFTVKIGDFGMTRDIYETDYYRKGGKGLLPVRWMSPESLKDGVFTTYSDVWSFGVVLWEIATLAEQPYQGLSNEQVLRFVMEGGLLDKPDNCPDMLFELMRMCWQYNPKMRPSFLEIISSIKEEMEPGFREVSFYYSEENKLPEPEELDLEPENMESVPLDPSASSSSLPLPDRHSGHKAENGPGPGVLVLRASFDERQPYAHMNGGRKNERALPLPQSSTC
Experimental: IC50 values of the compounds of the invention against IGF-1R and IR were measured in vitro using an ADP-Glo kinase assay Kit (Promega). […] Kinase reactions in both assays were conducted at 30° C. for 20 min with increasing concentrations of compounds of the invention.

[3] = average, read-out: % Inh @ 30 nM Avg
[4] = replicate N1, read-out: % Inh @ 30 nM (N1)
[5] = replicate N2, read-out: % Inh @ 30 nM (N2)

Compound | phosphorylated AKT levels normalized to actin levels (pAKT/actin) ([1]; 0.1 nM compound 2 h) | phosphorylated AKT levels normalized to actin levels (pAKT/actin) ([1]; 1 nM compound 2 h) | phosphorylated AKT levels normalized to actin levels (pAKT/actin) ([1]; 10 nM compound 2 h) | phosphorylated AKT levels normalized to actin levels (pAKT/actin) ([1]; 100 nM compound 2 h) | further results
CC(C)c1cc(Nc2nc(N3CCCCC3C(=O)Nc3ccc(F)nc3)nc3c2CCC3)n[nH]1 (single isomer, unassigned) [Compound 16b, N-(6-fluoropyridin-3-yl)-1-(4-(5-isopropyl-1H-pyrazol-3-ylamino)-6,7-dihydro-5H-cyclopenta[d]pyrimidin-2-yl)piperidine-2-carboxamide] | 0.53 | 0.51 | 0.15 | 0.01 | –
O=C(Nc1ccc(F)nc1)C1CCCCN1c1nc2c(c(Nc3cc(C4CC4)[nH]n3)n1)CCC2 (single isomer, unassigned) [Compound 9a, 1-(4-(5-cyclopropyl-1H-pyrazol-3-ylamino)-6,7-dihydro-5H-cyclopenta[d]pyrimidin-2-yl)-N-(6-fluoropyridin-3-yl)piperidine-2-carboxamide] | – | – | 0.53 | 0.02 | –
O=C(Nc1ccc(F)nc1)C1CCCN1c1nc2c(c(Nc3cc(C4CCCC4)[nH]n3)n1)CCC2 (racemic) [Compound 4, 1-(4-(5-cyclopentyl-1H-pyrazol-3-ylamino)-6,7-dihydro-5H-cyclopenta[d]pyrimidin-2-yl)-N-(6-fluoropyridin-3-yl)pyrrolidine-2-carboxamide] | – | – | – | 0.06 | –
CC(C)c1cc(Nc2nc(N3CCCCC3C(=O)Nc3ccc(F)nc3)nc3c2CCC3)n[nH]1 (single isomer, unassigned) [Compound 16a, N-(6-fluoropyridin-3-yl)-1-(4-(5-isopropyl-1H-pyrazol-3-ylamino)-6,7-dihydro-5H-cyclopenta[d]pyrimidin-2-yl)piperidine-2-carboxamide] | 0.82 | 0.62 | 0.61 | 0.30 | inhibition at 0.03 µM [2, 3]: 21%; inhibition at 0.03 µM [2, 4]: 27%
O=C(Nc1ccc(F)nc1)C1CCCN1c1nc2c(c(Nc3cc(C4CCCC4)[nH]n3)n1)CCC2 (single isomer, unassigned) [Compound 4b, 1-(4-(5-cyclopentyl-1H-pyrazol-3-ylamino)-6,7-dihydro-5H-cyclopenta[d]pyrimidin-2-yl)-N-(6-fluoropyridin-3-yl)pyrrolidine-2-carboxamide] | – | – | – | 0.20 | –
O=C(Nc1ccc(F)nc1)C1CCCN1c1nc2c(c(Nc3cc(C4CC4)[nH]n3)n1)CCCC2 (single isomer, unassigned) [Compound 14a, 1-(4-(5-cyclopropyl-1H-pyrazol-3-ylamino)-5,6,7,8-tetrahydroquinazolin-2-yl)-N-(6-fluoropyridin-3-yl)pyrrolidine-2-carboxamide] | 0.73 | 0.51 | 0.43 | 0.35 | –
O=C(Nc1ccc(F)nc1)C1C(O)CCN1c1nc2c(c(Nc3cc(C4CC4)[nH]n3)n1)CCC2 (single isomer, unassigned) [Compound 11a] | – | – | – | – | inhibition at 0.03 µM [2, 3]: 13%; inhibition at 0.03 µM [2, 4]: 17%; inhibition at 0.03 µM [2, 5]: 10%
O=C(Nc1cnccn1)C1CCCN1c1nc2c(c(Nc3cc(C4CC4)[nH]n3)n1)CCC2 (single isomer, unassigned) [Compound 6a] | – | – | 1.40 | – | –
O=C(Nc1cccnc1)C1CCCN1c1nc2c(c(Nc3cc(C4CC4)[nH]n3)n1)CCC2 (single isomer, unassigned) [Compound 3b, 1-(4-(5-cyclopropyl-1H-pyrazol-3-ylamino)-6,7-dihydro-5H-cyclopenta[d]pyrimidin-2-yl)-N-(pyridin-3-yl)pyrrolidine-2-carboxamide] | – | 1.70 | 0.57 | 0.02 | –
CC(C)c1cc(Nc2nc(N3CCCC3C(=O)N(C)C)nc3c2CCC3)n[nH]1 (single isomer, unassigned) [Compound 20a, 1-(4-(5-isopropyl-1H-pyrazol-3-ylamino)-6,7-dihydro-5H-cyclopenta[d]pyrimidin-2-yl)-N,N-dimethylpyrrolidine-2-carboxamide] | – | – | – | – | inhibition at 0.03 µM [2, 3]: 11%
O=C(Nc1ccc(F)nc1)C1CCCCN1c1nc2c(c(Nc3cc(C4CC4)[nH]n3)n1)CCC2 (racemic) [Compound 9, 1-(4-(5-cyclopropyl-1H-pyrazol-3-ylamino)-6,7-dihydro-5H-cyclopenta[d]pyrimidin-2-yl)-N-(6-fluoropyridin-3-yl)piperidine-2-carboxamide] | 0.67 | 0.71 | 0.07 | 0.00 | –
O=C(Nc1ccc(F)nc1)C1CCCN1c1nc2c(c(Nc3cc(C4CC4)[nH]n3)n1)CCC2 (single isomer, unassigned) [Compound 2a, 1-(4-(5-cyclopropyl-1H-pyrazol-3-ylamino)-6,7-dihydro-5H-cyclopenta[d]pyrimidin-2-yl)-N-(6-fluoropyridin-3-yl)pyrrolidine-2-carboxamide] | 1.70 | – | – | – | –
O=C(Nc1cncnc1)C1CCCN1c1nc2c(c(Nc3cc(C4CC4)[nH]n3)n1)CCC2 (racemic) [Compound 7, 1-(4-(5-cyclopropyl-1H-pyrazol-3-ylamino)-6,7-dihydro-5H-cyclopenta[d]pyrimidin-2-yl)-N-(pyrimidin-5-yl)pyrrolidine-2-carboxamide] | – | – | – | 1.20 | –
O=C(Nc1ccc(F)nc1)C1CCCN1c1nc2c(c(Nc3cc(C4CC4)[nH]n3)n1)CCC2 (racemic) [Compound 2, 1-(4-(5-cyclopropyl-1H-pyrazol-3-ylamino)-6,7-dihydro-5H-cyclopenta[d]pyrimidin-2-yl)-N-(6-fluoropyridin-3-yl)pyrrolidine-2-carboxamide] | – | 0.91 | 0.07 | 0.00 | –
CC(C)c1cc(Nc2nc(N3CCCC3C(=O)Nc3ccc(F)nc3)nc3c2CCC3)on1 (single isomer, unassigned) [Compound 12a, N-(6-fluoropyridin-3-yl)-1-(4-(3-isopropylisoxazol-5-ylamino)-6,7-dihydro-5H-cyclopenta[d]pyrimidin-2-yl)pyrrolidine-2-carboxamide] | – | – | – | – | inhibition at 0.03 µM [2, 3]: 20%; inhibition at 0.03 µM [2, 4]: 19%; inhibition at 0.03 µM [2, 5]: 20%
CC(C)c1cc(Nc2nc(N3CCCC3C(=O)Nc3ccc(F)nc3)nc3c2CCCC3)n[nH]1 (single isomer, unassigned) [Compound 13a, N-(6-fluoropyridin-3-yl)-1-(4-(5-isopropyl-1H-pyrazol-3-ylamino)-5,6,7,8-tetrahydroquinazolin-2-yl)pyrrolidine-2-carboxamide] | 0.51 | 0.54 | 0.45 | 0.80 | –
O=C(Nc1ccc(F)nc1)C1CCCCN1c1nc2c(c(Nc3cc(C4CCCC4)[nH]n3)n1)CCC2 (single isomer, unassigned) [Compound 17b, 1-(4-(5-cyclopentyl-1H-pyrazol-3-ylamino)-6,7-dihydro-5H-cyclopenta[d]pyrimidin-2-yl)-N-(6-fluoropyridin-3-yl)piperidine-2-carboxamide] | 0.83 | 0.99 | 0.95 | – | –
O=C(Nc1ccc(F)nc1)C1CCCN1c1nc2c(c(Nc3cc(C4CCCC4)[nH]n3)n1)CCCC2 (single isomer, unassigned) [Compound 15b, 1-(4-(5-cyclopentyl-1H-pyrazol-3-ylamino)-5,6,7,8-tetrahydroquinazolin-2-yl)-N-(6-fluoropyridin-3-yl)pyrrolidine-2-carboxamide] | 0.52 | 0.58 | 0.43 | 0.13 | –
O=C(Nc1cnccn1)C1CCCN1c1nc2c(c(Nc3cc(C4CC4)[nH]n3)n1)CCC2 (racemic) [Compound 6, 1-(4-(5-cyclopropyl-1H-pyrazol-3-ylamino)-6,7-dihydo-5H-cyclopenta[d]pyrimidin-2-yl)-N-(pyrazin-2-yl)pyrrolidine-2-carboxamide] | – | 0.22 | 0.01 | 0.01 | Normalized phosphorylated AKT (relative to actin) levels relative to 0.1 nM compound treatment ([1]; 100 nM): 0.0
O=C(Nc1ccc(F)nc1)C1C(O)CCN1c1nc2c(c(Nc3cc(C4CC4)[nH]n3)n1)CCC2 (single isomer, unassigned) [Compound 11b, 1-(4-(5-cyclopropyl-1H-pyrazol-3-ylamino)-6,7-dihydro-5H-cyclopenta[d]pyrimidin-2-yl)-N-(6-fluoropyridin-3-yl)-3-hydroxypyrrolidine-2-carboxamide] | – | – | – | 0.33 | –
